According to patent US20220211876A1, “LESION DETECTION METHOD” (MIE UNIVERSITY, priority 2019, published 2022):
Entries after “also recorded” stand apart in the source; their conditions may differ. One block for each molecule: values may come before it.

What was measured:
[1] = test system: large intestine of a mouse (normal mucosal tissue); test: Vital staining of normal mouse large intestine, imaging with multiphoton or confocal laser microscope; format: in vivo; conditions: for structures stained in double staining: curcumin and Red #106 from lumen side, FIG. 4
Method: (§1) 100 mg of curcumin (Tokyo Kasei, cat. #C2302, purity 97.0%) was suspended in 5 mL of ethanol, and further diluted 10-fold with ethanol. It was mixed with the same amount of glycerin, and further diluted 10-fold with glycerin. The mixture was mixed with the same amount of purified water to obtain a staining solution of curcumin. Regarding Red #106, its staining solution is obtained by dissolving the powder in saline to achieve a concentration of 1 mg/mL.
(§2) C57BL/6N mice purchased from Japan SLC, Inc. were used in the tests. All tests were performed on male, 8-week-old mice weighing 20˜25 grams.
(§3) A multiphoton laser microscope of FVMPE-RS (Olympus) was used with the irradiation wavelength of 800 nm, wherein the laser irradiation was performed at 5.8˜48.2% of its full power output. A confocal laser microscope of FV1000 (Olympus) was used with the irradiation wavelength of 488 nm and 594 nm, wherein the laser irradiation at 488 nm was performed at 15˜29.4% of its full power output, and the laser irradiation at 594 nm was performed at 13˜13.5% of its full power output.

[2] = test system: large intestine (cancer tumor site) of a colon cancer mouse; test: Vital staining of the cancer tumor site of a colon cancer mouse, laser microscope imaging; format: in vivo
Method: as §1, §2
Model mice with colon cancer were prepared by intraperitoneally administering 10 mg/kg of azoxymethane (AOM) dissolved in saline 4 times at weekly intervals to the C57BL/6N mice.
as §3

[3] = Fluorescent color by laser irradiation; format: physicochemical
Source text: Regarding staining an organ tissue, the object in the organ to be visualized differs depending on the staining agent used. For example, curcumin and Red #3 are suitable for staining epithelial and glandular cells, as well as cancerous cells derived from them. On the other hand, Red #106 is suitable for staining connective tissue and capillaries. By laser irradiation, curcumin gives a green fluorescent color, while Red #3 and Red #106 give a red fluorescent color. Therefore, double staining with curcumin and Red #106 makes it easier to identify structure of cells in tissue by superimposing stained images. Accordingly, micro cancer tissue with diameter of about 1 mm and invasive cancer cell groups can be detected.
as §3

STAT3 = target: T1, STAT3 (Homo sapiens, UniProt P40763); test: Staining of cells that overexpress a cancer-related gene product (STAT3); format: cell-based
T1 construct: endogenous in cells
Source text: For the visualization of expression patterns of cancer-related genes in living cells, the inventors stained a cancer-related gene product to chromatic color using staining agents containing edible dyes and photographed. An edible dye is a natural or artificial dye which has been permitted to be administered to human (For example, a dye for food coloring, or a dye that can be taken as supplements).
Specifically, a staining agent containing curcumins (C21H20O6) can be used to selectively stain a STAT3-based cancer-related gene product. In addition, a staining agent containing Red #3 (erythrosine) can be used to selectively stain the expression pattern of ras-based cancer-related gene.
More specifically, as a staining agent containing curcumins, a solution containing 1% by weight of curcumin was prepared. As a staining agent containing Red #3, a solution containing 1% by weight of phloxine was prepared. […]
When a staining agent containing curcumins is used, the expression of a STAT3-based cancer-related gene product in living cells can be visualized by staining. […] Accordingly, the nucleus surrounded by the cytoplasm is clearly visualized, making it clearer to be analyzed.

[4] = test system: Auerbach's plexus in large intestine; test: Curcumin staining of freshly resected colon of a patient with Hirschsprung-like disease, multiphoton laser microscope; parameters: species or system human
Method: In an embodiment of the present invention, curcumin was administered to a freshly resected colon from a patient with Hirschsprung-like disease, and then a multiphoton laser microscope was used to visualize Auerbach's plexus. […] (FIG. 39). Therefore, intraoperative rapid diagnosis by a multiphoton laser microscope of freshly resected large intestine of a patient with Hirschsprung-like disease can be performed and appropriate surgical resection sites can be confirmed.

[5] = test system: olfactory receptor neurons; test: Vital staining by coating onto nasal mucosa, laser microscope; format: in vivo, mouse; conditions: coating on nasal mucosa
Source text: FIG. 26 is a diagram showing, at high magnification, examples of visualization with a multiphoton laser microscope of olfactory receptor neurons, which are odor sensory cells, after vital staining by coating curcumin onto nasal mucosa of a mouse. […] Since a nucleus is not stained, it is viewed as a black negative image. By coating curcumin on nasal mucosa, olfactory receptor neuronal cells, which are odor sensing cells, can be visualized. Accordingly, olfactory disorders can be examined.

taste bud = test: Vital staining by coating onto tongue mucosa, laser microscope; format: in vivo, mouse; conditions: coating on tongue mucosa
Source text: FIG. 20 is a diagram showing, at high magnification, an example of visualization with a multiphoton laser microscope of a taste bud, which is a taste sensory device, after vital staining by coating curcumin onto tongue mucosa of a mouse. FIG. 20 to FIG. 22 are diagrams in which a taste bud, a taste sensory device, is visualized by a laser microscope after vital staining by coating curcumin on mouse tongue mucosa. FIG. 20 and FIG. 21 further show hematoxylin-eosin staining images of taste buds. The nuclei of sensory neuronal cells are not stained with curcumin, so that they are recognized as black negative images. By coating curcumin on oral mucosa, the neuronal cells of a taste bud, which is a taste sensory device, can be visualized. Accordingly, taste disorders can be examined in otolaryngologic field.

[6] = test system: optic nerve and optic ganglion cells of retina; test: Vital staining of retina by intraperitoneal administration, laser microscope; format: in vivo, mouse; conditions: curcumin vital staining
Source text: FIG. 38 is a diagram of visualization of optic nerves and the optic ganglion cells of retina in vivo after vital staining by intraperitoneal administration of sulforhodamine 101 and curcumin to a mouse. (A) is a diagram of visualization of blood vessels fluorescently labeled with sulforhodamine 101 and a bundle of optic nerve fluorescence-labeled with curcumin. […] In an embodiment of the present invention, the nerve cell layer of retina can be visualized by vital staining with curcumin (FIG. 37). According to FIG. 37, it can be seen that in the layer structure of retina, the cell layer of optic ganglion, inner plexiform layer, bipolar cell layer, outer plexiform layer, and outer nuclear layer can be identified. It can be seen that the blood vessel travel and the optic nerve bundle in retina can be visualized at the same time by double staining with blood vessel staining dye (sulforhodamine 101) and curcumin (FIG. 38A). […] Accordingly, the present invention is very useful for detecting retinal diseases.

[7] = test system: nerve fibers (myelin sheath); test: Vital staining of nerve fibers, multiphoton laser microscope; format: in vivo, mouse; conditions: intraperitoneal administration, FIG. 25
Source text: FIG. 25 is a diagram showing, at high magnification, examples of visualization with a laser multiphoton microscope of olfactory nerve fibers after vital staining by intraperitoneal administration of curcumin to a mouse.

RAS = test: Staining of cells that overexpress a cancer-related gene product (RAS); format: cell-based
Source text: For the visualization of expression patterns of cancer-related genes in living cells, the inventors stained a cancer-related gene product to chromatic color using staining agents containing edible dyes and photographed. An edible dye is a natural or artificial dye which has been permitted to be administered to human (For example, a dye for food coloring, or a dye that can be taken as supplements). Specifically, a staining agent containing curcumins (C21H20O6) can be used to selectively stain a STAT3-based cancer-related gene product. In addition, a staining agent containing Red #3 (erythrosine) can be used to selectively stain the expression pattern of ras-based cancer-related gene. More specifically, as a staining agent containing curcumins, a solution containing 1% by weight of curcumin was prepared. As a staining agent containing Red #3, a solution containing 1% by weight of […] was prepared. As a staining agent containing curcumins, a curcumin solution 5˜100-fold diluted from its stock solution (for example, a liquid containing 5% curcumin solution, 45% glycerol, and 50% ethanol) with physiological saline can be used. […] Accordingly, the nucleus surrounded by the cytoplasm is clearly visualized, making it clearer to be analyzed.

[8] = isolated large intestine, stained from serosa side
[9] = normal large intestine, five-layer structure
[10] = normal mucosal tissue of large intestine, FIG. 3
[11] = stained and photographed from luminal side

T1 sequence (P40763 whole entry, species assumed): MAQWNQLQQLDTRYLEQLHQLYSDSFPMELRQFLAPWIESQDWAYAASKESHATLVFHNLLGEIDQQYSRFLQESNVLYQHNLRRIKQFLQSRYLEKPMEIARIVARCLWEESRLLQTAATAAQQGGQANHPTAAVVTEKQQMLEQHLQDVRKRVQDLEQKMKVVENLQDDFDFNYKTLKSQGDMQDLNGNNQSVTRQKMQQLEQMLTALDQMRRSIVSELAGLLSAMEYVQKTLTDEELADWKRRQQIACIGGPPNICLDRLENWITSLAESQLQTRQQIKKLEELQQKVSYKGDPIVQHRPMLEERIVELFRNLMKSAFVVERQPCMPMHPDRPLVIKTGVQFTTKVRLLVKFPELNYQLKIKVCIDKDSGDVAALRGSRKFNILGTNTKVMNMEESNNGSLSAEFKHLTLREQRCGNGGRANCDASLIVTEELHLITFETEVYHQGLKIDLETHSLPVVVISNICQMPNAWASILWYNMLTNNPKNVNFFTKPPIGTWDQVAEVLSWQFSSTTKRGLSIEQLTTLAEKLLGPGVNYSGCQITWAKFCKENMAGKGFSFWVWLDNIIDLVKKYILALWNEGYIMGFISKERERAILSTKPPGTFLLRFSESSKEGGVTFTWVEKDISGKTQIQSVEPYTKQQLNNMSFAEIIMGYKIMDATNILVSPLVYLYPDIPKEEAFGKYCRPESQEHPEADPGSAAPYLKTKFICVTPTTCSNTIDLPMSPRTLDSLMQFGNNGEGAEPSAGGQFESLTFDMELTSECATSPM

fluorescent color [3]: green
staining of cells that overexpress STAT3 (STAT3): can stain cells that overexpress STAT3
staining of cytoplasm of olfactory receptor neurons and cilia having odor receptors [5]: stained positively
staining of nucleus of olfactory receptor neurons [5]: not stained
Compound: COc1cc(/C=C/C(=O)CC(=O)/C=C/c2ccc(O)c(OC)c2)ccc1O [curcumin]
structures stained in double staining ([1]; isolated large intestine): cytoplasm of epithelial and glandular cells
staining of nerve fibers of Auerbach's plexus [1, 8]: moderately
staining of perikaryon of Auerbach's plexus [1, 8]: strongly
staining of Auerbach's plexus inside muscle layer [1, 9]: strongly positively
staining of epithelial and glandular cells in epithelial and glandular layers (1) [1, 9]: strongly positively
staining of the smooth muscle in muscle layer (4) [1, 9]: slightly positively
staining of the smooth muscle in muscularis mucosae (2) [1, 9]: moderately positively; also recorded: severely positively
staining of the cytoplasm of epithelial cells and gland cells [1, 10]: stained
staining of the nucleus of epithelial cells and gland cells [1, 10]: not stained
staining of the nucleus in perikaryon of Meissner's plexus ([1]; stained from serosa side): does not stain the nucleus
staining of the nucleus in perikaryon of Auerbach's plexus ([1]; stained from serosa side, high magnification): does not stain the nucleus
staining of cancer cells relative to surrounding or normal tissue ([2]; cancer cells versus surrounding tissue / normal cells): darker than surrounding tissue
staining of cytoplasm of cancer cells [2, 11]: severely positively
staining of nuclei of cancer cells [2, 11]: negatively
identification of the normal part and malformation part of Auerbach's plexus [4]: clearly identified
staining of nuclei of sensory neuronal cells of taste bud (taste bud): not stained
signal of the cytoplasm of optic nerve and small/large ganglion cells [6]: positive signal
signal of the nucleus of optic nerve and small/large ganglion cells [6]: negative signal
staining of myelin sheath [7]: can stain myelin sheath

fluorescent color [3]: red
Compound: CCN(CC)c1ccc2c(-c3ccc(S(=O)(=O)[O-])cc3S(=O)(=O)[O-])c3ccc(=[N+](CC)CC)cc-3oc2c1.[Na+] [Red #106]
structures stained in double staining ([1]; isolated large intestine): connective tissue, capillaries and cell membranes of epithelial and glandular cells
staining of the network of capillaries surrounding the glandular structures of epithelial and glandular layers (1) [1, 9]: strongly positively
staining of the smooth muscle in muscle layer (4) [1, 9]: slightly positively; also recorded: strongly stained; also recorded: strongly positively
staining of the smooth muscle in muscularis mucosae (2) [1, 9]: slightly positively; also recorded: moderately positively
staining of the wall of a thick blood vessel inside muscle layer [1, 9]: strongly positively; also recorded: strongly stained

fluorescent color [3]: red
Compound: O=C1OC2(c3ccccc31)c1cc(I)c(O)c(I)c1Oc1c2cc(I)c(O)c1I [Red #3, erythrosine]
staining of cells that overexpress RAS (RAS): can stain
